Results: paper PMC8539420, “Discovery of a Potent and Selective JNK3 Inhibitor with Neuroprotective Effect Against Amyloid β-Induced Neurotoxicity in Primary Rat Neurons” (International Journal of Molecular Sciences, 2021)

The compounds below were run against T1, JNK3(h) (Homo sapiens, UniProt P53779) (assay: Kinase HotSpot radiometric assay, JNK3). Details: ATP 10 μM, substrate ATF2 5 μM; read-out: JNK3 inhibitory activity IC50.
T1 construct: purchased Reaction Biology Corp
Type: biochemical

T1 sequence (P53779 whole entry): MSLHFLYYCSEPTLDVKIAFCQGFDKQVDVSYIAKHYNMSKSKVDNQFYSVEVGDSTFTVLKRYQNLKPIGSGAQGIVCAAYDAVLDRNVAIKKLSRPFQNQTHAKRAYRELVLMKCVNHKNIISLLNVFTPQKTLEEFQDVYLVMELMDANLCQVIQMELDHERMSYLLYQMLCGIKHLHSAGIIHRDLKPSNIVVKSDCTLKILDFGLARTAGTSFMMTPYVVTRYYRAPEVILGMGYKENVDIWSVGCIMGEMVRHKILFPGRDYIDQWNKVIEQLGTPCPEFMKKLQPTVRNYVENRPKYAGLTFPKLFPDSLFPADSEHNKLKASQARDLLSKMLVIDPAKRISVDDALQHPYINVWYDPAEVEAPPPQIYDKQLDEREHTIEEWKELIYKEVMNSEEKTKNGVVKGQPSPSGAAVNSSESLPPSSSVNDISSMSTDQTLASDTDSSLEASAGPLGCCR

Structure (SMILES) | IC50 [nM]
O=C(C1CC1)N1CCC[C@H](Nc2nccc(-n3c(-c4ccc(F)c(C(F)(F)F)c4)nc4ccc(O)cc43)n2)C1 [26e, (S)-Cyclopropyl(3-((4-(2-(4-fluoro-3-(trifluoromethyl)phenyl)-6-hydroxy-1H-benzo[d]imidazol-1-yl)pyrimidin-2-yl)amino)piperidin-1-yl)methanone] | 100
Oc1ccc2nc(-c3ccc4occc4c3)n(-c3ccnc(NC4CCCCC4)n3)c2c1 [23c, 2-(Benzofuran-5-yl)-1-(2-(cyclohexylamino)pyrimidin-4-yl)-1H-benzo[d]imidazol-6-ol] | 71
Oc1ccc2c(c1)nc(-c1ccc3c(c1)OCCO3)n2-c1ccnc(NC2CCOCC2)n1 [9b, 2-(2,3-Dihydrobenzo[b][1,4]dioxin-6-yl)-1-(2-((tetrahydro-2H-pyran-4-yl)amino)pyrimidin-4-yl)-1H-benzo[d]imidazol-5-ol] | > 10000
Oc1ccc2c(c1)nc(-c1ccc3c(c1)OCCO3)n2-c1ccnc(NC2CCCCC2)n1 [10b, 1-(2-(Cyclohexylamino)pyrimidin-4-yl)-2-(2,3-dihydrobenzo[b][1, 4]dioxin-6-yl)-1H-benzo [d]imidazol-5-ol] | 1210
O=C(C1CC1)N1CCC[C@H](Nc2nccc(-n3c(-c4ccc5occc5c4)nc4cc(O)ccc43)n2)C1 [13c, (S)-(3-((4-(2-(Benzofuran-5-yl)-5-hydroxy-1H-benzo[d]imidazol-1-yl)pyrimidin-2-yl)amino)piperidin-1-yl)(cyclopropyl)methanone] | 287
O=C(C1CC1)N1CCC[C@H](Nc2nccc(-n3c(-c4ccc5ccccc5c4)nc4cc(O)ccc43)n2)C1 [13a, (S)-cyclopropyl(3-((4-(5-hydroxy-2-(naphthalen-2-yl)-1H-benzo[d]imidazol-1-yl)pyrimidin-2-yl)amino)piperidin-1-yl)methanone] | 391
Oc1ccc2c(c1)nc(-c1ccc(Cl)c(Cl)c1)n2-c1ccnc(NC2CCCCC2)n1 [10d, 1-(2-(Cyclohexylamino)pyrimidin-4-yl)-2-(3,4-dichlorophenyl)-1H-benzo[d]imidazol-5-ol] | 139
Oc1ccc2c(c1)nc(-c1ccc3occc3c1)n2-c1ccnc(NC2CCOCC2)n1 [9c, 2-(Benzofuran-5-yl)-1-(2-((tetrahydro-2H-pyran-4-yl)amino)pyrimidin-4-yl)-1H-benzo[d] imidazol-5-ol] | 4310
O=C(C1CC1)N1CCC[C@H](Nc2nccc(-n3c(-c4ccc(Cl)c(Cl)c4)nc4cc(O)ccc43)n2)C1 [13d, (S)-Cyclopropyl(3-((4-(2-(3,4-dichlorophenyl)-5-hydroxy-1H-benzo[d]imidazol-1-yl)pyrimidin-2-yl)amino)piperidin-1-yl)methanone] | 128
Oc1ccc2c(c1)nc(-c1ccc3occc3c1)n2-c1ccnc(NC2CCCCC2)n1 [10c, 2-(Benzofuran-5-yl)-1-(2-(cyclohexylamino)pyrimidin-4-yl)-1H-benzo[d]imidazol-5-ol] | 299
O=C(C1CC1)N1CCC[C@H](Nc2nccc(-n3c(-c4ccc(F)c(C(F)(F)F)c4)nc4cc(O)ccc43)n2)C1 [13e, (S)-Cyclopropyl(3-((4-(2-(4-fluoro-3-(trifluoromethyl)phenyl)-5-hydroxy-1H-benzo[d]imidazol-1-yl)pyrimidin-2-yl)amino)piperidin-1-yl)methanone] | 679
O=C(C1CC1)N1CCC[C@H](Nc2nccc(-n3c(-c4ccc5ccccc5n4)nc4cc(O)ccc43)n2)C1 [13f, (S)-Cyclopropyl(3-((4-(5-hydroxy-2-(quinolin-2-yl)-1H-benzo[d]imidazol-1-yl)pyrimidin-2-yl)amino)piperidin-1-yl)methanone] | 161
Oc1ccc2c(c1)nc(-c1ccc3ccccc3c1)n2-c1ccnc(NC2CCOCC2)n1 [9a] | 1480
Oc1ccc2nc(-c3ccc(F)c(C(F)(F)F)c3)n(-c3ccnc(NC4CCCCC4)n3)c2c1 [23e, 1-(2-(Cyclohexylamino)pyrimidin-4-yl)-2-(4-fluoro-3-(trifluoromethyl)phenyl)-1H-benzo [d]imidazol-6-ol] | 305
